# Measurements published in patent US6680308B1, “Use of organophosphorus compounds for the therapeutic and prophylactic treatment of infections” (priority 1998, dated 2004).
# Legend:
# Plasmodium vinckeii [1] = experiment: Efficacy against malaria in vivo, modified Peters' test, treatment of infected mice
# Method: The various derivatives were tested by the modified Peters' test. The substances were applied here in a quarter of the median lethal dose (LD50). In the test batch ten mice were infected with Plasmodium vinckeii, the pathogen of mouse malaria. After confirmation of the infection by blood testing four mice were treated. Six mice, which were not treated, served as a control group. […] The control mice had to be killed on day 5 after infection with parasitaemia of >80%.
# Plasmodium vinckeii [2] = experiment: Protection from malaria in infected mice, pretreatment one day before infection; type: in vivo, mice (BALB/c-strain)
# Method: The efficacy of compounds in vivo against malaria was tested using male mice weighing 20 to 25 g (BALB/c-strain). Four mice were treated intraperitoneally with 50 mg/kg 3-(N-formyl-N-hydroxylamino)-propylphosphonic acid monosodium salt one day before infection. The mice were then infected with Plasmodium vinckeii. Mice which were not pretreated with the substance served as a control group.
# [3] = tested on: Plasmodium falciparum HB3 (Honduras); experiment: In vitro cytotoxicity against malaria parasites, [3H]-hypoxanthine insertion, strain HB3; type: cell-based; conditions: strain HB3, resistant to pyrimethamine, 48 hours incubation, then 24 hours [3H]-hypoxanthine, read-out: IC50 value (concentration at which the vitality of parasites is reduced by a half)
# Method: (§1) On the Principle of IC50 Determination According to Vial et al (the Concentration at Which the Vitality of Parasites is Reduced by a Half)
# (§2) To determine the IC50 value according to Vial et al malaria parasites are initially cultivated for a complete 48 hour cycle in the presence of inhibitors, in the subsequent 24 hours the survival rate is measured by [^3H]-hypoxanthine insertion.
# (§3) A dilution series of 3-(N-formyl-N-hydroxylamino)-propylphosphonic acid monosodium salt is placed in 20 μl aliquots concentrated by 10 on a microtitre plate. Then 180 μl parasite suspension in culture medium is added to each well. Asynchronous cultures with a parasitaemia of approximately 0.4% and 2% haematocrite are used. The microtitre plates are subsequently incubated for 48 hours. Then 30 μl [^3H]-hypoxanthine are added to each well. After 24 hours of incubation the cells were harvested and the incorporated radioactivity was measured. In FIG. 1 the results with the strains HB3 and Dd2 are shown with known resistances against other malaria pharmaceutical compositions. In both strains there is a IC50 value of approximately 100 μg/l. The resistances of these strains are:
# Plasmodium falciparum HB3 (Honduras) is resistant to pyrimethamine.
# [4] = tested on: Plasmodium falciparum Dd2 (Indo-China); experiment: In vitro cytotoxicity against malaria parasites, [3H]-hypoxanthine insertion, strain Dd2; type: cell-based; conditions: strain Dd2, resistant to cloroquine, quinine, pyrimethamine, cycloguanil and sulfadoxine, 48 hours incubation, then 24 hours [3H]-hypoxanthine, read-out: IC50 value (concentration at which the vitality of parasites is reduced by a half)
# Method: as §1, §2, §3
# Plasmodium falciparum Dd2 (Indo-China) is resistant to cloroquine, quinine, pyrimethamine, cycloguanil and sulfadoxine.
structure (smiles),measurement,setting,value
O=CN(O)CCCP(=O)([O-])O.[Na+] [3-(N-formyl-N-hydroxylamino)-propylphosphonic acid monosodium salt],living parasites after 1 day,"Plasmodium vinckeii [1]; 50 mg/kg/d, mice with a parasitaemia of 80%, after 1 day",free of living parasites
same,parasites 8 weeks after the treatment had stopped,"Plasmodium vinckeii [1]; 1,000 mg/kg/d over 3 days, 8 weeks after end of treatment",still free from parasites
same,effect on parasites in the mice's blood,"Plasmodium vinckeii [1]; 1,000 mg/kg/d over 3 days, mice infected with Plasmodium vinckeii",destruction of the parasites
same,living parasites in treated group after one day,"Plasmodium vinckeii [1]; 1,000 mg/kg/d, after just one day",free of living parasites
same,infection in pretreated mice,Plasmodium vinckeii [2]; 50 mg/kg intraperitoneally one day before infection with Plasmodium vinckeii,No infection could be detected
same,parasites 8 weeks after infection,"Plasmodium vinckeii [2]; 50 mg/kg intraperitoneally one day before infection, 8 weeks after infection",still free of parasites
same,IC50,[3],~0.1 µg/mL
same,IC50,[4],~0.1 µg/mL
